# Source: PMC6092045 (Chemical communications (Cambridge, England), 2018)
# pIC50: −log10 of the molar value.
# Molecular target: T1, ERAAP (ER aminopeptidase associated with antigen processing) (Mus musculus, UniProt Q9EQH2)
# T1 sequence (Q9EQH2 1-930): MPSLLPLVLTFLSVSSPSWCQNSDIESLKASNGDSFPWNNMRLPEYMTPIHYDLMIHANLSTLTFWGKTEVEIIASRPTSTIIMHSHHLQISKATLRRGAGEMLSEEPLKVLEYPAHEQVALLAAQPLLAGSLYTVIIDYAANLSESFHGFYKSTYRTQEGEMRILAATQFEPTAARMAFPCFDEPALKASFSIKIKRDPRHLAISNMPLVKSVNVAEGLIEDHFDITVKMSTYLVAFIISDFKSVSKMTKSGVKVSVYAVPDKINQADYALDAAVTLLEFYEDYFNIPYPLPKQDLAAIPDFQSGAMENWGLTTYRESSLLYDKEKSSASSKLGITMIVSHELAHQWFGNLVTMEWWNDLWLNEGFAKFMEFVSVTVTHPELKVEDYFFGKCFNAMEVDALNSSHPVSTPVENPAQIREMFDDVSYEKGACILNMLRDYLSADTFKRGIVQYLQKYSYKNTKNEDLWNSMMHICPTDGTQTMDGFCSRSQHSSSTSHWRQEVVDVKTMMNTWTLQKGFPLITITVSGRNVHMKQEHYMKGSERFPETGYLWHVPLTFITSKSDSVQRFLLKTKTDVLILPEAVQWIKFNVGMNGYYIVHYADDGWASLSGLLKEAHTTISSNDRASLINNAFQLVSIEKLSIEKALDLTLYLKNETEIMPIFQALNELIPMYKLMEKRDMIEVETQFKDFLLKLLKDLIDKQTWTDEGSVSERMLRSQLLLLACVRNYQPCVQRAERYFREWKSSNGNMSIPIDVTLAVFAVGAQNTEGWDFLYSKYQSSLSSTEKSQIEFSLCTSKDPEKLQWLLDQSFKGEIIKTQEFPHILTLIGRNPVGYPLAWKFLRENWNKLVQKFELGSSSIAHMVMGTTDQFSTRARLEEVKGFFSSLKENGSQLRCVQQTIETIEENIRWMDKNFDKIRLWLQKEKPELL
# Test: fluorogenic Ep peptide cleavage assay, dose-response
# Assay type: biochemical
smiles,measurement,value
"C#CC(=O)c1ccc(Br)cc1F [A, 1-(4-bromo-2-fluorophenyl)prop-2-yn-1-one]",pIC50,4.64
